Experimental data as given in patent publication US8058285B2, “Substituted pyrido [3′, 2′: 4, 5] thieno [3, 2-D] pyrimidines and pyrido [3′, 2′: 4, 5] furo [3, 2-D] pyrimidines used as inhibitors of the PDE-4 and/or the release of TNF-ALPHA” (The Medicines Company (Leipzig) GmbH, priority 2004, dated 2011).
pIC50: −log10 of the molar value.

Assays:
PDE-4A = target: T1, PDE-4A (Homo sapiens, UniProt P27815); assay: PDE-4A inhibitory assay (SPA); assay type: biochemical
T1 construct: PDE-4A catalytic domain comprising amino acids 342-704; made in house; host or cells: Escherichia coli
Procedure, shortened: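 Human recombinant PDE-4A catalytic domain (aa 342-704), E. coli-expressed. SPA with 1 μM [^3H]-cAMP substrate in 100 mM Tris-HCl pH 7.5, 5 mM MgCl2, 1% DMSO; 20 min at 22° C. Non-specific activity with 100 μM rolipram subtracted.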

TNFα release = assay: LPS-induced TNFα release in diluted human blood (ELISA); assay type: cell-based; settings: LPS 1 μg/ml, human blood diluted 1:5, 24 h; read-out: IC50 value in the TNFα inhibitory assay
Text: Isolated leukocytes can be stimulated for the release of cytokines in different ways. Lipopolysaccharides (LPS) are a stimulus for the investigation of the TNFα release. LPS is part of bacterial cell walls and is released when the bacteria are killed (by antibiotics or the natural immune system). LPS stimulates in particular the activity of phagocytizing leukocytes (tissue macrophages, granulocytes, monocytes) and causes the infiltration of leukocytes from the peripheral blood into the affected tissue. A cytokine of special significance for these mechanisms is TNFα which is secreted in large amounts by the affected cells. The main source are here monocytes and macrophages. TNFα initiates and prolongs the inflammatory process in cooperation with other mediators.
For the investigation of the effect on the LPS-induced TNFα release a method was used which was described by Marx, D., Tassabehji, M., Heer, S., Hüttenbrink, K.-B., and I. Szelenyi, Pulmonary Pharmacology & Therapeutics (2002) 15, 7-15. The method is briefly: Human blood was taken from various donors, rendered incoagulable by the addition of 10 mM Na citrate and diluted 1:5 with RPMI 1640 cell culture medium. The test substances were added to the blood samples at various concentrations. 15 min later, the leukocytes were stimulated by the addition of lipopolysaccharides (LPS) from Salmonella abortus equi at a final concentration of 1 μg/ml. After the incubation of the test batches at 37° C. and under 5% CO2 in a water-saturated air for 24 h, the blood was centrifuged and the TNFα concentration in the cell-free supernatant was accurately measured using a purchasable ELISA (BD Biosciences) according to the manufacturer's instructions.

T1 sequence (P27815 342-704): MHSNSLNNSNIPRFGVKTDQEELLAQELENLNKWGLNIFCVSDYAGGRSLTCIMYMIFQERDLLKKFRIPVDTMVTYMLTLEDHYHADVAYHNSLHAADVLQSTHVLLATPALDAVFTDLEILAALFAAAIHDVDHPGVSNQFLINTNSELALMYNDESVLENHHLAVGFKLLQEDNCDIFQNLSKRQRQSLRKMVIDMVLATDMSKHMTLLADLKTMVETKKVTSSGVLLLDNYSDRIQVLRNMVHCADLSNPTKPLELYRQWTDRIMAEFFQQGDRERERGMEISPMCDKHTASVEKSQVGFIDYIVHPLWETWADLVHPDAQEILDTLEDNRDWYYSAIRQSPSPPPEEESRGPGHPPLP

pIC50 (PDE-4A)	pIC50 (TNFα release)	melting point	SMILES
7.30 to 8.70	> 5.70		CCOc1nc(N2CCNCC2)c2sc3nc(-c4ccc(OC)cc4)cc(C)c3c2n1 [2-Ethoxy-7-(4-methoxy-phenyl)-9-methyl-4-(piperazin-1-yl)-pyrido[3′,2′:4,5]thieno[3,2-d]pyrimidine]
7.30 to 8.70	> 5.70		CCOc1nc(N2CCNCC2)c2sc3nc(-c4ccc(C(F)(F)F)cc4)cc(C)c3c2n1 [2-Ethoxy-7-(4-trifluoro-methyl-phenyl)-9-methyl-4-(piperazin-1-yl)-pyrido[3′,2′:4,5]thieno[3,2-d]pyrimidine]
7.30 to 8.70		175 °C	CCOc1nc(N2CCNCC2)c2oc3nc(-c4ccccc4)cc(C)c3c2n1 [2-Ethoxy-7-phenyl-9-methyl-4-(piperazin-1-yl)-pyrido[3′,2′:4,5]furo[3,2-d]pyrimidine]
7.30 to 8.70	> 5.70		CCOc1nc(N2CCNCC2)nc2c1sc1nc(-c3ccncc3)cc(C(F)(F)F)c12 [4-Ethoxy-2-(piperazin-1-yl)-7-(4-pyridyl)-9-trifluoromethyl-pyrido[3′,2′:4,5]thieno[3,2-d]pyrimidine]
7.30 to 8.70	> 5.70		CCOc1nc(N2CCNCC2)nc2c1sc1nc(-c3cccnc3)cc(C(F)(F)F)c12 [4-Ethoxy-2-piperazin-1-yl-7-(3-pyridyl)-9-trifluoromethyl-pyrido[3′,2′:4,5]thieno[3,2-d]pyrimidine]
7.30 to 8.70	> 5.70		CCOc1nc(N2CCNCC2)nc2c1sc1nc(C)c(Cc3ccc([N+](=O)[O-])cc3)c(C)c12 [4-Ethoxy-7,9-dimethyl-8-(4-nitro-benzyl)-2-(piperazin-1-yl)-pyrido[3′,2′:4,5]thieno[3,2-d]pyrimidine]
7.30 to 8.70	> 5.70		CCOc1nc(N2CCNCC2)nc2c1sc1nc(-c3ccccc3)cc(-c3ccccc3)c12 [4-Ethoxy-7,9-diphenyl-2-(piperazin-1-yl)-pyrido[3′,2′:4,5]thieno[3,2-d]pyrimidine]
7.30 to 8.70	> 5.70		CCOc1nc(N2CCNCC2)nc2c1sc1nc(-c3ccc[n+]([O-])c3)cc(C(F)(F)F)c12 [4-Ethoxy-7-(1-oxy-pyridin-3-yl)-2-(piperazin-1-yl)-9-trifluoromethyl-pyrido[3′,2′:4,5]thieno[3,2-d]pyrimidine]
7.30 to 8.70	> 5.70		CCOc1nc(N2CCNCC2)nc2c1sc1nc(-c3cc[n+]([O-])cc3)cc(C(F)(F)F)c12 [4-Ethoxy-7-(1-oxy-pyridin-4-yl)-2-(piperazin-1-yl)-9-trifluoromethyl-pyrido[3′,2′:4,5]thieno[3,2-d]pyrimidine]
> 8.70	> 5.70		CCOc1nc(N2CCNCC2)nc2c1sc1nc(-c3ccc(-n4ccnc4)cc3)cc(C(F)(F)F)c12 [4-Ethoxy-7-(4-(1H-imidazol-1-yl)phenyl)-2-(piperazin-1-yl)-9-trifluoromethyl-pyrido[3′,2′:4,5]thieno[3,2-d]pyrimidine]
> 8.70	> 5.70		CCOc1nc(N2CCNCC2)nc2c1sc1nc(-c3ccc(-c4ccoc4)cc3)nc(C)c12 [4-Ethoxy-7-(4-[3-furyl]-phenyl)-9-methyl-2-piperazin-1-yl-thieno[2,3-d:4,5-d′]dipyrimidine]
7.30 to 8.70	> 5.70		CCOc1nc(N2CCNCC2)nc2c1sc1nc(-c3ccc(F)cc3)cc(C)c12 [4-Ethoxy-7-(4-fluoro-phenyl)-9-methyl-2-(piperazin-1-yl)-pyrido[3′,2′:4,5]thieno[3,2-d]pyrimidine]
7.30 to 8.70	> 5.70		CCOc1nc(N2CCNCC2)nc2c1sc1nc(-c3ccc(OC)cc3)cc(C)c12 [4-Ethoxy-7-(4-methoxy-phenyl)-9-methyl-2-(piperazin-1-yl)-pyrido[3′,2′:4,5]thieno[3,2-d]pyrimidine]
7.30 to 8.70	> 5.70		CCOc1nc(N2CCNCC2)nc2c1sc1nc(N3CCOCC3)cc(-c3ccccc3)c12 [4-Ethoxy-7-morpholino-9-phenyl-2-(piperazin-1-yl)-pyrido[3′,2′:4,5]thieno[3,2-d]pyrimidine]
7.30 to 8.70		131 to 132 °C	CCOc1nc(N2CCNCC2)nc2c1oc1nc(-c3ccccc3)cc(C)c12 [4-Ethoxy-7-phenyl-9-methyl-2-(piperazin-1-yl)-pyrido[3′,2′:4,5]furo[3,2-d]pyrimidine]
7.30 to 8.70	> 5.70		CCOc1nc(N2CCNCC2)nc2c1sc1nc(-c3ccc(-c4cc[nH]c4)cc3)nc(C)c12 [4-Ethoxy-9-methyl-2-piperazin-1-yl-7-(4-[3-pyrrolyl]-phenyl)-thieno[2,3-d:4,5-d′]dipyrimidine]
7.30 to 8.70		165 to 166 °C	C=Cc1ccc(-c2nc(C)c3c(n2)sc2c(OCC)nc(N4CCNCC4)nc23)cc1 [4-Ethoxy-9-methyl-2-piperazin-1-yl-7-(4-vinyl-phenyl)-thieno[2,3-d:4,5-d′]dipyrimidine]
> 8.70	> 5.70		CCOc1nc(N2CCNCC2)nc2c1sc1nc(-c3ccc(-c4cccc(N)c4)cc3)nc(C)c12 [7-(3′-Aminobiphen-4-yl)-4-ethoxy-9-methyl-2-piperazin-1-yl-thieno[2,3-d:4,5-d′]dipyrimidine]
7.30 to 8.70	> 5.70	> 300 °C	CCOc1nc(N2CCNCC2)nc2c1sc1nc(-c3ccc(C(O)CO)cc3)nc(C)c12 (stereo not drawn) [7-(4-[1,2-Dihydroxyethyl]-phenyl)-4-ethoxy-9-methyl-2-piperazin-1-yl-thieno[2,3-d:4,5-d′]dipyrimidine]
7.30 to 8.70	> 5.70		CCOc1nc(N2CCNCC2)nc2c1sc1nc(C)c(Cc3ccc(N)cc3)c(C)c12 [8-(4-Amino-benzyl)-4-ethoxy-7,9-dimethyl-2-(piperazin-1-yl)-pyrido[3′,2′:4,5]thieno[3,2-d]pyrimidine]
7.30 to 8.70	> 5.70		CCOc1nc(N2CCNCC2)nc2c1sc1nc(N3CCOCC3)c3c(c12)CCCC3 [8-Ethoxy-5-morpholino-10-piperazin-1-yl-pyrimido[4′,5′:4,5]thieno[2,3-c]-1,2,3,4-tetrahydro-isoquinoline]
7.30 to 8.70	> 5.70		CCCOc1nc(N2CCNCC2)nc2c1sc1nc(-c3ccccc3)cc(C)c12 [9-Methyl-7-phenyl-2-(piperazin-1-yl)-4-n-propoxy-pyrido[3′,2′:4,5]thieno[3,2-d]pyrimidine]
		> 310 °C	CCOc1nc(N2CCNCC2)c2sc3nc(-c4ccccc4)nc(C)c3c2n1 [Example 2, 2-ethoxy-9-methyl-4-piperazin-1-yl-7-phenyl-thieno[2,3-d:4,5-d′]dipyrimidine]
		149 to 150 °C	C/C=C/C=C/C(O)c1ccc(-c2nc(C)c3c(n2)sc2c(OCC)nc(N4CCNCC4)nc23)cc1 (stereo not drawn) [Example 6, 4-ethoxy-7-(4-[{2E,4E}-1-hydroxyhexa-2,4-dienyl]phenyl)-9-methyl-2-piperazin-1-yl-thieno[2,3-d:4,5-d′]dipyrimidine]
		150 to 154 °C	CCSc1nc(N2CCNCC2)c2sc3nc(-c4ccccc4)cc(C)c3c2n1 [Example 13, 2-ethylthio-9-methyl-7-phenyl-4-piperazin-1-yl-pyrido-[3′,2′:4,5]thieno[3,2-d]pyrimidine]
		190 °C (dec.)	CCS(=O)(=O)c1nc(N2CCNCC2)c2sc3nc(-c4ccccc4)cc(C)c3c2n1 [Example 15, 2-ethylsulfonyl-9-methyl-7-phenyl-4-piperazin-1-yl-pyrido-[3′,2′:4,5]thieno[3,2-d]pyrimidine]
> 8.70	> 5.70		CCOc1nc(N2CCNCC2)nc2c1sc1nc(-c3ccc(NC=O)cc3)cc(C(F)(F)F)c12 [N-(4-(4-Ethoxy-9-trifluoromethyl-2-piperazin-1-yl-pyrido[3′,2′:4,5]thieno[3,2-d]pyrimidin-7-yl)-phenyl)-formamide]
> 8.70	> 5.70		CCOc1nc(N2CCNCC2)nc2c1sc1nc(-c3ccc(NC(=O)c4ccncc4)cc3)cc(C(F)(F)F)c12 [N-(4-(4-Ethoxy-9-trifluoromethyl-2-piperazin-1-yl-pyrido[3′,2′:4,5]thieno[3,2-d]pyrimidin-7-yl)-phenyl)-isonicotinamide]
> 8.70	> 5.70		CCOc1nc(N2CCNCC2)nc2c1sc1nc(-c3ccc(NC(=O)c4cccnc4)cc3)cc(C(F)(F)F)c12 [N-(4-(4-Ethoxy-9-trifluoromethyl-2-piperazin-1-yl-pyrido[3′,2′:4,5]thieno[3,2-d]pyrimidin-7-yl)-phenyl)-nicotinamide]
> 8.70	> 5.70		CCOc1nc(N2CCNCC2)nc2c1sc1nc(-c3ccc(C(N)=NO)cc3)cc(C(F)(F)F)c12 [N′-Hydroxy-4-(4-ethoxy-9-trifluoromethyl-2-piperazin-1-yl-pyrido[3′,2′:4,5]thieno[3,2-d]pyrimidin-7-yl)-benzamidine bistrifluoroacetate]
